From patent publication EP0514268A1, “Substituted amino acid azetidinyl pyridone derivatives, their preparation and use as medicines” (LABORATORIOS DEL DR. ESTEVE, S.A., priority 1991, dated 1992)
In brackets after ≈: the same amount, converted by molar mass.

What was measured:
[1] = test system: Escherichia coli ATCC 23559; experiment: Antimicrobial activity, agar dilution; assay type: cell-based; conditions: Escherichia coli, ATCC23559, 20 h, Agar Dextrose dilutions, 37°C, 20 heures, read-out: Activité pharmacologique antimicrobienne (concentrations)
From the text: (§1) L'activité pharmacologique antimicrobienne de ces composés a été étudiée selon les références exposées ci-dessous.
(§2) Activité pharmacologique antimicrobienne : G.L. Daquet et Y.A. Chabbect, techniques en bactériologie, Vol. 3, Flammarion Médecine-Sciences, Paris 1972, et W.B. Hugo et A.D. Rusell, Pharmaceutical Microbiology, Blackwell Scientific Publications, London, 1977.
(§3) Milieu de culture et solvant : Agar d'antibiotiques n° 1 (Oxoid CM 327) Bouillon de triptone-soja (Oxoid CM 129) Solution Physiologique Ringer 1/4 (Oxoid BR 52) Agar Dextrose (BBL 11165)
(§4) Microorganismes : "Bacillus subtilis" ATCC 6633 "Citrobacter freundii" ATCC 112606 "Enterobacter aerogenes" ATCC 15038 "Enterobacter cloacae" ATCC 23355 "Bacillus cereus" ATCC 1178 "Escherichia coli" ATCC 10799 "Escherichia coli" ATCC 23559 "Klebsiella pneumoniae" ATCC 10031 "Proteus vulgaris" ATCC 8427 "Morg. morganii" ATCC 8019 "Pseudomonas aeruginosa" ATCC 9721 "Pseudomonas aeruginosa" ATCC 10145 "Salmonella typhimurium" ATCC 14028 "Salmonella typhimurium" ATCC 6539 "Serratia marcescens" ATCC 13880 "Shigella flexnerii" ATCC 12022 "Staphylococcusepidermis" ATCC 155-1 "Staphylococcus aureus" ATCC 25178 "Streptococcus faecalis" ATCC 10541.
(§5) Chacun des microorganismes est ensemencé par strie dans des tubes d'Agar d'antibiotiques n° 1, et mis en incubation pendant 20 heures à 37°C. Ensuite, on prend une anse de culture, on ensemence dans un bouillon de Triptone-soja et on incube pendant 20 heures à 37°C. On dilue à 1/4 la culture obtenue avec une solution physiologique Ringer, de façon à obtenir une suspension normalisée de […] pour chaque organisme.
(§6) A partir d'une solution de 100 µg/ml, chaque produit est dilué dans l'Agar Dextrose (préalablement fondu et maintenu à 50°C) par dilutions successives de façon à obtenir les concentrations suivantes : 64-32-16-8-4-2-1-0,5-0,25-0,125 µg de dérivé/ml du milieu.
(§7) Postérieurement, chaque concentration de chaque produit est répartie dans des boîtes de Petri de 10 cm de diamètre, à raison de 10 ml de milieu par boîte et autant de boîtes que de microorganismes à tester.
(§8) Une fois le milieu refroidi, les boîtes sont ensemencées avec les inoculations à raison de 0,4 ml d'inoculation par boîte. On les étend avec une anse de Driglasky et on recueille le surnageant. Les boîtes ensemencées sont incubées à 37°C pendant 20 heures.
(§9) Les résultats obtenus sont décrits dans les tableaux suivants. Les concentrations sont données en µg/ml.

[2] = test system: Staph. epidermidis ATCC 155-1; experiment: Antimicrobial activity, agar dilution; assay type: cell-based; conditions: Staphylococcus epidermidis, ATCC155, 20 h, Agar Dextrose dilutions, 37°C, 20 heures, read-out: Activité pharmacologique antimicrobienne (concentrations)
From the text: as §1, §2, §3, §4, §5, §6, §7, §8, §9

[3] = test system: Escherichia coli ATCC 10799; experiment: Antimicrobial activity, agar dilution; assay type: cell-based; conditions: Escherichia coli, ATCC10799, 20 h, Agar Dextrose dilutions, 37°C, 20 heures, read-out: Activité pharmacologique antimicrobienne (concentrations)
From the text: as §1, §2, §3, §4, §5, §6, §7, §8, §9

[4] = test system: Bacillus cereus ATCC 11778; experiment: Antimicrobial activity, agar dilution; assay type: cell-based; conditions: Bacillus cereus, ATCC11778, 20 h, Agar Dextrose dilutions, 37°C, 20 heures, read-out: Activité pharmacologique antimicrobienne (concentrations)
From the text: as §1, §2, §3, §4, §5, §6, §7, §8, §9

Morg. morganii ATCC 8019 = experiment: Antimicrobial activity, agar dilution; assay type: cell-based; conditions: Morganella morganii, ATCC8019, 20 h, Agar Dextrose dilutions, 37°C, 20 heures, read-out: Activité pharmacologique antimicrobienne (concentrations)
From the text: as §1, §2, §3, §4, §5, §6, §7, §8, §9

Ps. aeruginosa ATCC 9721 = experiment: Antimicrobial activity, agar dilution; assay type: cell-based; conditions: Pseudomonas aeruginosa, ATCC9721, 20 h, Agar Dextrose dilutions, 37°C, 20 heures, read-out: Activité pharmacologique antimicrobienne (concentrations)
From the text: as §1, §2, §3, §4, §5, §6, §7, §8, §9

[5] = test system: Bacillus subtilis ATCC 6633; experiment: Antimicrobial activity, agar dilution; assay type: cell-based; conditions: ATCC6633, 20 h, Agar Dextrose dilutions, 37°C, 20 heures, read-out: Activité pharmacologique antimicrobienne (concentrations)
From the text: as §1, §2, §3, §4, §5, §6, §7, §8, §9

Sal. typhi ATCC 6539 = experiment: Antimicrobial activity, agar dilution; assay type: cell-based; conditions: Salmonella enterica, 20 h, read-out: Activité pharmacologique antimicrobienne (concentrations)
From the text: as §1, §2, §3, §4, §5, §6, §7, §8, §9

[6] = test system: Shigella flexnerii ATCC 12022; experiment: Antimicrobial activity, agar dilution; assay type: cell-based; conditions: ATCC12022, 20 h, Agar Dextrose dilutions, 37°C, 20 heures, read-out: Activité pharmacologique antimicrobienne (concentrations)
From the text: as §1, §2, §3, §4, §5, §6, §7, §8, §9

[7] = test system: Proteus vulgaris ATCC 8427; experiment: Antimicrobial activity, agar dilution; assay type: cell-based; conditions: Proteus vulgaris, ATCC8427, 20 h, Agar Dextrose dilutions, 37°C, 20 heures, read-out: Activité pharmacologique antimicrobienne (concentrations)
From the text: as §1, §2, §3, §4, §5, §6, §7, §8, §9

[8] = test system: Ps. aeruginosa ATCC 10145; experiment: Antimicrobial activity, agar dilution; assay type: cell-based; conditions: Pseudomonas aeruginosa, ATCC10145, 20 h, Agar Dextrose dilutions, 37°C, 20 heures, read-out: Activité pharmacologique antimicrobienne (concentrations)
From the text: as §1, §2, §3, §4, §5, §6, §7, §8, §9

Ent. cloacae ATCC 23355 = experiment: Antimicrobial activity, agar dilution; assay type: cell-based, Enterobacter cloacae; conditions: Enterobacter cloacae, ATCC23355, 20 h, Agar Dextrose dilutions, 37°C, 20 heures, read-out: Activité pharmacologique antimicrobienne (concentrations)
From the text: as §1, §2, §3, §4, §5, §6, §7, §8, §9

[9] = test system: Ent. aerogenes ATCC 15038; experiment: Antimicrobial activity, agar dilution; assay type: cell-based, Enterobacter aerogenes; conditions: Klebsiella aerogenes, ATCC15038, 20 h, Agar Dextrose dilutions, 37°C, 20 heures, read-out: Activité pharmacologique antimicrobienne (concentrations)
From the text: as §1, §2, §3, §4, §5, §6, §7, §8, §9

Staph. aureus ATCC 25178 = experiment: Antimicrobial activity, agar dilution; assay type: cell-based, Staphylococcus aureus; conditions: Staphylococcus aureus, ATCC25178, 20 h, Agar Dextrose dilutions, 37°C, 20 heures, read-out: Activité pharmacologique antimicrobienne (concentrations)
From the text: as §1, §2, §3, §4, §5, §6, §7, §8, §9

[10] = test system: Kleb. pneumoniae ATCC 10031; experiment: Antimicrobial activity, agar dilution; assay type: cell-based, Klebsiella pneumoniae; conditions: Klebsiella pneumoniae, ATCC10031, 20 h, Agar Dextrose dilutions, 37°C, 20 heures, read-out: Activité pharmacologique antimicrobienne (concentrations)
From the text: as §1, §2, §3, §4, §5, §6, §7, §8, §9

[11] = test system: Strep. faecalis ATCC 10541; experiment: Antimicrobial activity, agar dilution; assay type: cell-based, Streptococcus faecalis; conditions: Enterococcus faecalis, ATCC10541, 20 h, Agar Dextrose dilutions, 37°C, 20 heures, read-out: Activité pharmacologique antimicrobienne (concentrations)
From the text: as §1, §2, §3, §4, §5, §6, §7, §8, §9

[12] = test system: Serr. marcescens ATCC 13880; experiment: Antimicrobial activity, agar dilution; assay type: cell-based, Serratia marcescens; conditions: Serratia marcescens, ATCC13880, 20 h, Agar Dextrose dilutions, 37°C, 20 heures, read-out: Activité pharmacologique antimicrobienne (concentrations)
From the text: as §1, §2, §3, §4, §5, §6, §7, §8, §9

[13] = test system: Sal. typhimurium ATCC 14028; experiment: Antimicrobial activity, agar dilution; assay type: cell-based, Salmonella typhimurium; conditions: Salmonella enterica, 20 h, Agar Dextrose dilutions, 37°C, 20 heures, read-out: Activité pharmacologique antimicrobienne (concentrations)
From the text: as §1, §2, §3, §4, §5, §6, §7, §8, §9

[14] = Solubility in water and at pH 7.4; assay type: physicochemical
From the text: Un grand nombre des composés de l'invention manifestent une augmentation de la solubilité dans l'eau ainsi que de la solubilité à pH 7,4 lorsqu'on compare avec les composés de référence. L'augmentation de solubilité au pH physiologique peut favoriser l'absorption du produit et la solubilité élevée dans l'eau permet l'administration du composé par voie parentérale.

[15] = test system: Citr. freundii ATCC 11606; experiment: Antimicrobial activity, agar dilution; assay type: cell-based, Citrobacter freundii; conditions: Citrobacter freundii, ATCC11606, 20 h, Agar Dextrose dilutions, 37°C, 20 heures, read-out: Activité pharmacologique antimicrobienne (concentrations)
From the text: as §1, §2, §3, §4, §5, §6, §7, §8, §9

Structure (SMILES)	MIC [1] [mg/L]	MIC [2] [mg/L]	MIC [3] [mg/L]	MIC [4] [mg/L]	MIC (Morg. morganii ATCC 8019) [mg/L]	MIC (Ps. aeruginosa ATCC 9721) [mg/L]	MIC [5] [mg/L]	MIC (Sal. typhi ATCC 6539) [mg/L]	MIC [6] [mg/L]	MIC [7] [mg/L]	MIC [8] [mg/L]	MIC (Ent. cloacae ATCC 23355) [mg/L]	MIC [9] [mg/L]	MIC (Staph. aureus ATCC 25178) [mg/L]	MIC [10] [mg/L]	MIC [11] [mg/L]	MIC [12] [mg/L]	MIC [13] [mg/L]	solubility ([14]; pH 7) [mg/mL]	solubility ([14]; water) [mg/mL]	further results
C[C@H](N)C(=O)N[C@@H]1CN(c2cc3c(cc2F)c(=O)c(C(=O)O)cn3-c2ccc(F)cc2F)[C@H]1C [Exemple 4eA]	1 (≈ 2.11 µM)	16 (≈ 33.7 µM)	2 (≈ 4.22 µM)	1 (≈ 2.11 µM)	4 (≈ 8.43 µM)	8 (≈ 16.9 µM)	0.5 (≈ 1.05 µM)	2 (≈ 4.22 µM)	0.5 (≈ 1.05 µM)	16 (≈ 33.7 µM)	8 (≈ 16.9 µM)	2 (≈ 4.22 µM)	2 (≈ 4.22 µM)	1 (≈ 2.11 µM)	2 (≈ 4.22 µM)	8 (≈ 16.9 µM)	8 (≈ 16.9 µM)	2 (≈ 4.22 µM)	> 0.5	> 0.5	MIC [15]: 2 mg/L (≈ 4.22 µM)
NCC(=O)NC1CN(c2nc3c(cc2F)c(=O)c(C(=O)O)cn3-c2ccc(F)cc2F)C1 [Exemple 4bG]	0.5 (≈ 1.12 µM)	2 (≈ 4.47 µM)	2 (≈ 4.47 µM)	1 (≈ 2.24 µM)	4 (≈ 8.94 µM)	16 (≈ 35.8 µM)	1 (≈ 2.24 µM)	1 (≈ 2.24 µM)	0.5 (≈ 1.12 µM)	8 (≈ 17.9 µM)	> 32	1 (≈ 2.24 µM)	1 (≈ 2.24 µM)	1 (≈ 2.24 µM)	1 (≈ 2.24 µM)	16 (≈ 35.8 µM)	16 (≈ 35.8 µM)	4 (≈ 8.94 µM)	0.0076 (≈ 17 µM)	> 0.5	MIC [15]: 1 mg/L (≈ 2.24 µM)
CC(C)C[C@H](N)C(=O)N[C@@H]1CN(c2nc3c(cc2F)c(=O)c(C(=O)O)cn3C2CC2)[C@H]1C [Exemple 4aL, chlorhydratede l'acide 7-[(2S,3R)-2-méthyl-3-Leu-amino-1-azétidinyl]-1-cyclopropyl-6-fluoro-1,4-dihydro-4-oxo-1,8-naphtyridine-3-carboxylique]	0.06	0.25	0.12	0.12	0.25	2	0.12	0.12	0.06	0.25	8	0.12	0.12	0.25	0.06	2	0.25	0.12	> 0.5	> 0.5	MIC [15]: 0.12 mg/L
C[C@H](N)C(=O)N[C@@H](C)C(=O)N[C@@H]1CN(c2nc3c(cc2F)c(=O)c(C(=O)O)cn3C2CC2)[C@H]1C [Exemple 4aAA]	2 (≈ 4.22 µM)	8 (≈ 16.9 µM)	2 (≈ 4.22 µM)	16 (≈ 33.7 µM)	4 (≈ 8.43 µM)	> 16	1 (≈ 2.11 µM)	2 (≈ 4.22 µM)	2 (≈ 4.22 µM)	8 (≈ 16.9 µM)	> 16	2 (≈ 4.22 µM)	2 (≈ 4.22 µM)	4 (≈ 8.43 µM)	8 (≈ 16.9 µM)	> 16	8 (≈ 16.9 µM)	2 (≈ 4.22 µM)	> 0.5	> 0.5	MIC [15]: 2 mg/L (≈ 4.22 µM)
